Measured values taken from patent US12565480B2, “Thiophene derivatives as xanthine oxidase inhibitors and application thereof” (Tonghua Dongbao Pharmaceutical Co., Ltd., priority 2019, dated 2026).

Tests used:
[1] = molecular target: CYP2D6 (Homo sapiens (Human), UniProt P10635); assay: Cytochrome P450 isozyme inhibitory activity test, CYP2D6; type: in vitro ADME; conditions: human liver microsomes; read-out: Cytochrome P450 isoenzyme IC50, CYP2D6
Method: (§1) Cytochrome P450 Isozyme Inhibitory Activity Test
(§2) The inhibitory activities of test compounds against different subtypes of human cytochrome P450 isoenzymes were determined.
(§3) Preparing test compounds, standard inhibitor (100×final concentration) and mixed substrate working solutions; Microsomes (purchased from Corning Inc) frozen in −80° C. freezer was taken out and thawed. 20 μL of the test compound and standard inhibitor solution were added to the corresponding wells, and at the same time 20 μL of the corresponding solvent was added to the no inhibitor control wells (NIC) and blank control wells (Blank); then 20 μL of mixed substrate solution was added to the corresponding wells, except for Blank wells (adding 20 μL of Phosphate Buffer (PB) to Blank wells); the human liver microsome solution was prepared (marking the date after use and putting back in the refrigerator immediately), then 158 μL of human liver microsome solution was immediately added to all wells; the above sample plate was pre-incubated in a 37° C. water bath, and then coenzyme factor (NADPH) solution was prepared; 10 minutes later, 20 μL of NADPH solution was added to all wells. […]

[2] = molecular target: CYP3A4-M (Homo sapiens (Human), UniProt P08684); assay: Cytochrome P450 isozyme inhibitory activity test, CYP3A4-M; type: in vitro ADME; conditions: human liver microsomes; read-out: Cytochrome P450 isoenzyme IC50, CYP3A4-M
CYP3A4-M, sequence (P08684 whole entry): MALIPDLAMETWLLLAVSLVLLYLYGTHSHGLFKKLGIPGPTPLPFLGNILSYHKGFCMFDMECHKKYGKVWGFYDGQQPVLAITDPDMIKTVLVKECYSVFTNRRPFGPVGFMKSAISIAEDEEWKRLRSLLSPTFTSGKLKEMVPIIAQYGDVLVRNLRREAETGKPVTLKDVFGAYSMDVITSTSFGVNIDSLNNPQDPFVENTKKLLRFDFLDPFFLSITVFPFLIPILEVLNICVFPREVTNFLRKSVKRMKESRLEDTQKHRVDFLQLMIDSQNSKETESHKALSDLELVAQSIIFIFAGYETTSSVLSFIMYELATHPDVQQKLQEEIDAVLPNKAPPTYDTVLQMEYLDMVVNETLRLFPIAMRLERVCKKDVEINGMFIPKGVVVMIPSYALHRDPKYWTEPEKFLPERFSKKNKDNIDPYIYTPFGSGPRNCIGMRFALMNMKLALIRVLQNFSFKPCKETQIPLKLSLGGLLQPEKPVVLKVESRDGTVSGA
Method: as §1, §2, §3

[3] = Pharmacokinetics in SD rats
Method: Pharmacokinetics of test compounds in SD rats
Sprague Dawley Rat (male, 180-350 g, 6-10 weeks old, Charles River Laboratories, Beijing)
Six male SD rats were divided into 2 groups. […] Whole blood was collected at 0 (the gavage group only), 0.083 (intravenous only), 0.25, 0.5, 1, 2, 4, 8 and 24 hours after administration. Whole blood was centrifuged at 3200 g at 4° C. for 10 min to obtain plasma.

[4] = system: Human hepatocytes; assay: Hepatocytes metabolic stability (HMS), human hepatocytes; type: in vitro ADME; conditions: for Intrinsic hepatic clearance, Human: CLint(liver)
Method: (§4) Assay Example 3: Hepatocytes Metabolic Stability (HMS) Study
(§5) To test the metabolic stability of the test sample in human and rat hepatocytes.
(§6) 2.1 Test compound (10 mM), control substance: 7-Ethoxycoumarin (30 mM), 7-Hydroxycoumarin (control substance, 30 mM)
(§7) 2.3 Buffer System: • Thawing medium: Williams' medium E containing 5% fetal bovine serum, 30% Percoll solution and other auxiliary materials • Incubation medium: Williams medium E (without phenol red) containing 2 mM L-glutamine and 25 mM hydroxyethylpiperazine ethane sulfonic acid. • Stop solution: 200 ng/mL of tosylbutyramide and labetalol in acetonitrile as internal standards. • Dilution solution: Ultrapure water. 3. Method of the Assay • 1) The exact amount of positive control compound was dissolved in dimethyl sulfoxide (DMSO) to give a 30 mM solution • 2) 10 mM test compound and 30 mM positive control compound were diluted to 1 mM and 3 mM with DMSO in 96-well plates. • 3) 1 mM test compound and 3 mM positive control compound was diluted into 100 μM and 300 μM quantification solutions with acetonitrile. • 4) The cryopreserved cells were thawed, dissociated and suspended in culture medium, and then diluted to 0.5×10^6 cells/mL with pre-warmed culture medium. • 5) 198 μL of pre-warmed cell suspension was added to a 96-well plate. • 6) 100 μL of stop solution (acetonitrile containing 200 ng/mL tosylbutyramide and 200 ng/mL labetalol as internal standard) was transferred in a set of pre-labeled 96-well plates. • 7) 2 μL of 100 μM test compound or 300 μM positive control quantitation solution was added in duplicate to each well of the 96-well plate. • 8) The TO samples were mixed to achieve uniform suspension over about 1 min, and then 20 μL of each sample was immediately transferred into wells containing 100 μL of ice-cold stop solution followed by mixing. • 9) All plates were incubated at 37° C. in 5% CO2 in a 95% humidified incubator, with constant shaking at approximately 600 rpm for reaction. • 10) At 15, 30, 60 and 90 min, samples were mixed, and then 20 μL of each sample was transferred to wells containing 100 μL of ice-cold stop solution at each time point and mixed. • 11) Medium control (MC) sample plates (labeled as TO-MC and T90-MC) were prepared at TO and T90 by adding the same components to each well except for the cell suspension. […]
(§8) The elimination rate constant k of the test compound and the control compound in hepatocytes was calculated by plotting the logarithm of the residual ratio vs time, and the half-life (T1/2) and in vitro intrinsic clearance rate (CLint) were obtained by using the elimination rate k. […]

[5] = molecular target: CYP1A2 (Homo sapiens (Human), UniProt P05177); assay: Cytochrome P450 isozyme inhibitory activity test, CYP1A2; type: in vitro ADME; conditions: human liver microsomes; read-out: Cytochrome P450 isoenzyme IC50, CYP1A2
CYP1A2, sequence (P05177 whole entry): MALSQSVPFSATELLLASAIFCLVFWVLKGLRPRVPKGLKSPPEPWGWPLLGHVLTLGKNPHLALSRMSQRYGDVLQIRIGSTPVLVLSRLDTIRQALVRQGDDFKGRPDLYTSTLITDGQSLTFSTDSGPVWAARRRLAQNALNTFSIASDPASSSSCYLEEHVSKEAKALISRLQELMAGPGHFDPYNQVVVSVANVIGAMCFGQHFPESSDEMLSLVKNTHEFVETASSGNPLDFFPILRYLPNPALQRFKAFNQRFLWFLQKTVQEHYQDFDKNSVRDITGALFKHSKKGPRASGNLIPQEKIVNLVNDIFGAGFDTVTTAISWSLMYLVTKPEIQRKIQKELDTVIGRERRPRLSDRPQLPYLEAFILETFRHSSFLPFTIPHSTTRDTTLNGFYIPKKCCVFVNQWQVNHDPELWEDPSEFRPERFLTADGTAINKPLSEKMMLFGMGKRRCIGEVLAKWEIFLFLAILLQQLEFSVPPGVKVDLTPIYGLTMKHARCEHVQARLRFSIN
Method: as §1, §2, §3

[6] = molecular target: CYP2C9 (Homo sapiens (Human), UniProt P11712); assay: Cytochrome P450 isozyme inhibitory activity test, CYP2C9; type: in vitro ADME; conditions: human liver microsomes; read-out: Cytochrome P450 isoenzyme IC50, CYP2C9
CYP2C9, sequence (P11712 whole entry): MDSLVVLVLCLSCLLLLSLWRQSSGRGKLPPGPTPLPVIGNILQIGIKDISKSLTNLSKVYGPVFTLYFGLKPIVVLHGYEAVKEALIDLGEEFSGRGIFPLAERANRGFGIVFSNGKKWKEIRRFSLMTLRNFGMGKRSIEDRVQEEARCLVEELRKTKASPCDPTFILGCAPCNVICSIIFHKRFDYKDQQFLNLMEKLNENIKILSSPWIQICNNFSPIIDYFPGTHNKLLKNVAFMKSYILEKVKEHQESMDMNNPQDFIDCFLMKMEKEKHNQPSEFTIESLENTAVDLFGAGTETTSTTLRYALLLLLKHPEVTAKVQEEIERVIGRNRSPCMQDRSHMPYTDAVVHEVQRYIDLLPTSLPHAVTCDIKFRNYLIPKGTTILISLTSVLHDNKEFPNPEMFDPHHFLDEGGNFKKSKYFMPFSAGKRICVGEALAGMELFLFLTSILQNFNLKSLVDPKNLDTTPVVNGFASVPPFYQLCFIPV
Method: as §1, §2, §3

[7] = system: Rat hepatocytes; assay: Hepatocytes metabolic stability (HMS), rat hepatocytes; type: in vitro ADME; conditions: for Intrinsic hepatic clearance, Rat: CLint(liver)
Method: as §4, §5, §6, §7, §8

[8] = system: MDR1-MDCK II cells; conditions: for Papp (AB) / Papp (BA): 2 μM, pH 7.4, […]; for Papp (AB): A to B; for Papp (BA): B to A
Method: Membrane Permeability MDR1 Test
MDR1-MDCK II cells are Madin-Darby canine kidney cells transfected with human MDR1 gene, which can stably express high P-gp. The aim of this study was to test the bidirectional permeability of compounds across the MDR1-MDCK II cell model and to assess whether they are transported by efflux.
Test compounds were diluted in transport buffer (HBSS, 10 mM Hepes with DMSO, pH 7.4) to a concentration of 2 μM (DMSO<1%) and applied on the apical or basolateral side of the cell monolayer. The compound to be tested was tested in duplicate in the direction of from A to B or from B to A, digoxin was tested at 10 μM in the direction of from A to B or from B to A, while nadolol and metoprolol were tested at 2 μM from A to B. Plates were incubated in a CO2 incubator at 37±1° C. in a saturated humidity of 5% CO2 for 2.5 hours without shaking. In addition, the efflux ratio of each compound was determined, and for the test and reference compounds quantitation was conducted. Analysis was carried out by LC/MS/MS according to the peak area ratio of analyte/IS. After the transport assay, the Lucifer Yellow exclusion assay was used to determine integrity of the cell monolayer. The buffer was removed from the apical and basolateral compartments, then 75 μL of 100 μM luciferin yellow was added to the transport buffer, and 250 μL of the transport buffer was added to the apical and basolateral compartments, respectively. The plate was incubated at 37° C., 5% CO2 and saturated humidity for 30 minutes without shaking. After 30 minutes of incubation, 20 μL of luciferin yellow sample was withdrawn from the apical, followed by the addition of 60 μL of transport buffer. An 80 μL luciferin yellow sample was then collected basolaterally.
The apparent permeability coefficient (Papp, cm/s), efflux rate and recovery rate were calculated using the following formulae.
[formula] dCr/dt is the cumulative concentration of the compound at the receiver end over unit time (μM/s); Vr is the volume of the receiver end solution (0.075 mL and 0.250 mL for the apical and basal ends, respectively); Ais the relative surface area (0.0804 cm^2) of the cell monolayer; C0 is the initial concentration (nM) of the test substance at the administration end or the peak area ratio of the reference substance.
[formula] C0 is the initial concentration (nM) of the test substance at the administration end or the peak area ratio of the reference substance; Va is the volume of the administration end (0.075 mL for the apical side and 0.250 mL for the basal side); Cd and Cr are the final concentration (nM) of the test substance at the administration end and the receiver end or the peak area ratio of the reference substance.

[9] = molecular target: CYP2C19 (Homo sapiens (Human), UniProt P33261); assay: Cytochrome P450 isozyme inhibitory activity test, CYP2C19; type: in vitro ADME; conditions: human liver microsomes; read-out: Cytochrome P450 isoenzyme IC50, CYP2C19
CYP2C19, sequence (P33261 whole entry): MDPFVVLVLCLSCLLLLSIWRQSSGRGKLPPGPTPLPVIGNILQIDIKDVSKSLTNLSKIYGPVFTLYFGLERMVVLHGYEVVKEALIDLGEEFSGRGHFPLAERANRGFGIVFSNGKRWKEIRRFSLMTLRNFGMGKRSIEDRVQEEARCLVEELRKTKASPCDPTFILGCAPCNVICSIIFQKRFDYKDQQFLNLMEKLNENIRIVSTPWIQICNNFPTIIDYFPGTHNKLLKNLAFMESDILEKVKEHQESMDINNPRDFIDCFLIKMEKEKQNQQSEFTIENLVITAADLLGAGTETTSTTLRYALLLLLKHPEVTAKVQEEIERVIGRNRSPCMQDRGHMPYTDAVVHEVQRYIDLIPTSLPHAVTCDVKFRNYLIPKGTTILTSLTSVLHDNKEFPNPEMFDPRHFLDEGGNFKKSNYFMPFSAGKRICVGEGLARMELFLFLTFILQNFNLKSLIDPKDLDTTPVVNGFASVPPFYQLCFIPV
Method: as §1, §2, §3

[10] = 2 subjects; cited from earlier work
[11] = high dose of 80 mg/day; cited from earlier work

CYP2D6, sequence (P10635 whole entry): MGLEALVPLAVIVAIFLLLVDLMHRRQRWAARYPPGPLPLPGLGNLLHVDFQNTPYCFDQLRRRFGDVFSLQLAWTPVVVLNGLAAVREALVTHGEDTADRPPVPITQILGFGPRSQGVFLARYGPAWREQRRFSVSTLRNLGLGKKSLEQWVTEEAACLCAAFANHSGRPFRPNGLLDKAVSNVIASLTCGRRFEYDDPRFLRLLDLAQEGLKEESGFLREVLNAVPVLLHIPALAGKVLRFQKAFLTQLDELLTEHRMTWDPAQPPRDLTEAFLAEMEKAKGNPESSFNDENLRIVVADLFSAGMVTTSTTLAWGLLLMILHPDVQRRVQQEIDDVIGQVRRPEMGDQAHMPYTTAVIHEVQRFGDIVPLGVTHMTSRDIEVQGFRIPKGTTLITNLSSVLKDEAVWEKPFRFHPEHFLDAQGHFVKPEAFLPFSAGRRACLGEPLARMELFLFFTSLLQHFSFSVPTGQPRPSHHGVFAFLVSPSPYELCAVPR

For N#Cc1sc(-c2ccc(C(=O)O)c(O)c2)c2c1CCC(F)(F)C2 [Compound 2], the IC50 [1] was greater than 50 µM, the IC50 [2] was greater than 50 µM and the “Pharmacokinetic properties (in words)” value [3] was “good pharmacokinetic properties”. It also gave an AUC0-inf ([3]; 2.89 mpk Intravenous injection) of 41.8 µM·h, a C0 ([3]; 2.89 mpk Intravenous injection) of 96.6 µM and a Cl ([3]; 2.89 mpk Intravenous injection) of 3.59 mL/min/kg. For the same molecule, the T1/2 ([3]; 2.89 mpk Intravenous injection) was 3.74 h, the Vdss ([3]; 2.89 mpk Intravenous injection) was 0.32 L/kg and the AUC0-inf ([3]; 8.58 mpk Oral) was 86.6 µM·h. It also gave a Cmax ([3]; 8.58 mpk Oral) of 27.5 µM, a T1/2 ([3]; 8.58 mpk Oral) of 2.47 h and a Tmax ([3]; 8.58 mpk Oral) of 30 min. The Bioavailability ([3]; 8.58 mpk Oral vs 2.89 mpk Intravenous injection) was 62.1%, the “Oral bioavailability (in words)” value ([3]; oral) was “high oral bioavailability” and the “Clearance in human hepatocytes (in words)” value [4] was “moderate clearance”. For the same molecule, the “Intrinsic hepatic clearance, Human” value [4] was 31.8 mL/min/kg, the IC50 [5] was greater than 50 µM and the IC50 [6] was 18.1 µM. For the same molecule, the “Clearance in rat hepatocytes (in words)” value [7] was “high clearance”, the “Intrinsic hepatic clearance, Rat” value [7] was 188.4 mL/min/kg and the “Permeability (in words)” value [8] was “high permeability”. The “Papp (AB)” value [8] was 26.42 10^−6 cm/s, the “Papp (BA)” value [8] was 6.63 10^−6 cm/s and the IC50 [9] was greater than 50 µM.

In the case of N#Cc1sc(-c2ccc(C(=O)O)c(O)c2)c2c1CCC2 [Compound 3], the IC50 [1] is reported as greater than 50 µM, the IC50 [2] is reported as greater than 50 µM and the “Clearance in human hepatocytes (in words)” value [4] is reported as “moderate clearance”. For the same molecule, the “Intrinsic hepatic clearance, Human” value [4] was 48.2 mL/min/kg, the IC50 [5] was greater than 50 µM and the IC50 [6] was 14.8 µM. The “Clearance in rat hepatocytes (in words)” value [7] was “high clearance”, the “Intrinsic hepatic clearance, Rat” value [7] was 1097.9 mL/min/kg and the “Permeability (in words)” value [8] was “high permeability”. For the same molecule, the “Papp (AB)” value [8] was 38.63 10^−6 cm/s, the “Papp (BA)” value [8] was 10.99 10^−6 cm/s and the IC50 [9] was greater than 50 µM.

For N#Cc1cn(-c2ccc(C(=O)O)c(O)c2)c2ccccc12 [PF-06743649], the “Side effects after administration in clinical phase I trial” value [10] is given as “acute PF-06743649-induced renal injury side effects”.

In the case of Cc1nc(-c2ccc(OCC(C)C)c(C#N)c2)sc1C(=O)O [febusteine], the “Patients who do not achieve the expected goal of lowing uric acid” value [11] is listed as 40% to 52.
